The subject of this assay is angiotensin II-induced pressor responses. Description: Test C: antagonism of angiotensin II-induced pressor responses in rats. Format: in vivo. The note with it: iv, rat, i.v. administration. The source says:
The antagonism of one or more of the physiological actions of AII and, in particular, the antagonism of the interaction of AII with the receptors which mediate its effects on a target tissue, may be assessed using one or more of the following, routine laboratory procedures: Test C: This in vivo test involves using terminally-anaesthetised or conscious rats in which an arterial catheter has been implanted under anaesthesia for the measurement of changes in blood pressure. The AII antagonistic effects of the test compound following oral or parenteral administration, are assessed against angiotensin II-induced pressor responses. To ensure that the effect is specific, the effect of the test compound on vasopressin-induced pressor responses may also be determined in the same preparation.

Usually ED50 stands for the dose at which the effect has come halfway, by size or by number of responders. Lower therefore signals greater potency. For the molecule `Cc1cc(OCc2ccc(-c3ccccc3-c3nnn[nH]3)cc2)c2ccccc2n1.Cl` [Example 7, 2-methyl-4-[(2'-(1H-tetrazol-5-yl)biphenyl-4-yl)methoxy]quinoline hydrochloride], the ED50 stood at 0.5 mg/kg.

The values above are taken from US5444071A, “Quinoline derivatives and use thereof as angiotensin II antagonists” (Imperial Chemical Industries PLC, priority 1989, dated 1995).
